# Results reported in BindingDB's records for doi:10.1016/j.bmcl.2019.04.027 (Gilead Sciences, 2019).
# Columns and labels:
# [1] = Inhibition of NS5A in HCV genotype 2a JFH1 infected in human HuH7 replicon cells assessed as reduction in viral replication after 3 days by luciferase reporter gene assay
# [2] = Inhibition of NS5A in HCV genotype 4a ED43 infected in human HuH7 transient chimeric replicon cells assessed as reduction in viral replication after 3 days by luciferase reporter gene assay
# [3] = Inhibition of NS5A L31M mutant in HCV genotype 2a J6 (M31) infected in human HuH7 replicon cells assessed as reduction in viral replication after 3 days by luciferase reporter gene assay
# [4] = Inhibition of NS5A L31M mutant in patient derived HCV genotype 2b MD2b-1 infected in human HuH7 replicon cells assessed as reduction in viral replication after 3 days by luciferase reporter gene assay
# [5] = Inhibition of NS5A in HCV genotype 1a H77 infected in human HuH7 replicon cells assessed as reduction in viral replication after 3 days by luciferase reporter gene assay
# [6] = Inhibition of NS5A in HCV genotype 3a S52 infected in human HuH7 transient chimeric replicon cells assessed as reduction in viral replication after 3 days by luciferase reporter gene assay
# [7] = Inhibition of NS5A in HCV genotype 1b Con1 infected in human HuH7 replicon cells assessed as reduction in viral replication after 3 days by luciferase reporter gene assay
# [8] = Inhibition of NS5A in HCV genotype 2a JFH1 (L31) infected in human HuH7 replicon cells assessed as reduction in viral replication after 3 days by luciferase reporter gene assay
# [9] = Inhibition of NS5A L31M mutant in HCV genotype 2a JFH1 infected in human HuH7 replicon cells assessed as reduction in viral replication after 3 days by luciferase reporter gene assay
# [10] = Inhibition of NS5A in HCV genotype 4a ED43 infected in human HuH7 replicon cells assessed as reduction in viral replication after 3 days by luciferase reporter gene assay
# [11] = Inhibition of NS5A in HCV genotype 2b MD2b-1 infected in human HuH7 replicon cells assessed as reduction in viral replication after 3 days by luciferase reporter gene assay
Structure (SMILES),EC50 [1],EC50 [2],EC50 [3],EC50 [4],EC50 [5],EC50 [6],EC50 [7],EC50 [8],EC50 [9],EC50 [10],EC50 [11]
COC(=O)N[C@H](C(=O)N1CCC[C@H]1c1nc2ccc3cc4c(cc3c2[nH]1)OCc1cc(-c2cnc([C@@H]3CCCN3C(=O)[C@H](NC(=O)OC)c3ccccc3)[nH]2)ccc1-4)C(C)C,0.006 nM,0.011 nM,0.073 nM,0.016 nM,0.035 nM,0.006 nM,0.033 nM,,,,
COC(=O)N[C@H](C(=O)N1CCC[C@H]1c1ncc(-c2cc3c4c(c2)OCc2cc(-c5cnc([C@@H]6CCCN6C(=O)[C@@H](NC(=O)OC)C6CCC6)[nH]5)cc(c2-4)OC3)[nH]1)C1CCC1,,,,,0.053 nM,,0.02 nM,0.02 nM,31.3 nM,,
COC(=O)N[C@H](C(=O)N1CCC[C@H]1c1ncc(-c2cc3c4c(c2)OCc2cc(-c5cnc([C@@H]6CCCN6C(=O)[C@@H](NC(=O)OC)C6CCOCC6)[nH]5)cc(c2-4)OC3)[nH]1)C1CCOCC1,,,0.33 nM,0.6 nM,0.38 nM,,0.8 nM,0.074 nM,,,
COC(=O)N[C@H](C(=O)N1CCC[C@H]1c1ncc(-c2cc3c4c(c2)COc2cc(-c5cnc([C@@H]6CCCN6C(=O)[C@@H](NC(=O)OC)C(C)C)[nH]5)cc(c2-4)CC3)[nH]1)C(C)C,,,23.7 nM,,0.065 nM,,0.028 nM,0.016 nM,,,
COC(=O)N[C@H](C(=O)N1CCC[C@H]1c1ncc(-c2cc3c4c(c2)OCc2cc(-c5cnc([C@@H]6CCCN6C(=O)[C@@H](NC(=O)OC)C6CCOCC6)[nH]5)cc(c2-4)OC3)[nH]1)C(C)C,,,1.43 nM,,0.185 nM,,0.172 nM,0.014 nM,1.33 nM,,
COC(=O)N[C@@H](C(=O)N1CCC[C@H]1c1ncc(-c2cc3c4c(c2)OCc2cc(-c5cnc([C@@H]6CCCN6C(=O)[C@H](NC(=O)OC)c6ccccc6)[nH]5)cc(c2-4)OC3)[nH]1)c1ccccc1,,,0.24 nM,0.022 nM,0.093 nM,,0.048 nM,0.007 nM,0.145 nM,,
COC(=O)N[C@H](C(=O)N1CCC[C@H]1c1ncc(-c2ccc3c(c2)COc2cc4c(ccc5nc([C@@H]6CCCN6C(=O)[C@@H](NC(=O)OC)C(C)C)[nH]c54)cc2-3)[nH]1)C(C)C,,0.008 nM,1.16 nM,0.162 nM,0.016 nM,0.004 nM,0.017 nM,0.004 nM,,,
COC(=O)N[C@H](C(=O)N1CCC[C@H]1c1ncc(-c2cc3c4c(c2)COc2cc(-c5cnc([C@@H]6CCCN6C(=O)[C@@H](NC(=O)OC)C(C)C)[nH]5)cc(c2-4)OC3)[nH]1)C(C)C,,,,,0.087 nM,,0.021 nM,0.019 nM,9.85 nM,,
COC(=O)NC(C(=O)N1CCC[C@H]1c1ncc(-c2cc3c4c(c2)OCc2cc(-c5cnc([C@@H]6CCCN6C(=O)[C@@H](NC(=O)OC)C(C)C)[nH]5)cc(c2-4)OC3)[nH]1)c1cccnc1 (stereo not given in full),,,1.8 nM,1.21 nM,0.75 nM,,0.58 nM,0.038 nM,,,
COC(=O)N[C@H](C(=O)N1CCC[C@H]1c1ncc(-c2cc3c4c(c2)OCc2cc(-c5cnc([C@@H]6CCCN6C(=O)[C@H](NC(=O)OC)c6ccccc6)[nH]5)cc(c2-4)OC3)[nH]1)C1CCOCC1,,,0.28 nM,0.057 nM,0.32 nM,,0.315 nM,0.022 nM,0.32 nM,,
COC(=O)N[C@H](C(=O)N1CCC[C@H]1c1ncc(-c2ccc3c(c2)COc2cc4c(ccc5nc([C@@H]6CCCN6C(=O)[C@H](NC(=O)OC)c6ccccc6)[nH]c54)cc2-3)[nH]1)C(C)C,0.004 nM,0.008 nM,0.134 nM,0.012 nM,0.022 nM,0.005 nM,0.021 nM,,,,
COC(=O)N[C@H](C(=O)N1C[C@@H](C)C[C@H]1c1nc2ccc3cc4c(cc3c2[nH]1)OCc1cc(-c2cnc([C@@H]3C[C@H](C)CN3C(=O)[C@H](NC(=O)OC)c3ccccc3)[nH]2)ccc1-4)C(C)C,0.018 nM,,0.045 nM,,0.033 nM,0.05 nM,0.03 nM,,,0.063 nM,0.027 nM
COC(=O)N[C@H](C(=O)N1CCC[C@H]1c1ncc(-c2ccc3c(c2)COc2c-3ccc3c2ccc2nc([C@@H]4CCCN4C(=O)[C@@H](NC(=O)OC)C(C)C)[nH]c23)[nH]1)C(C)C,,0.13 nM,20.9 nM,32.3 nM,0.041 nM,0.012 nM,0.017 nM,0.016 nM,,,
COC(=O)N[C@@H](C(=O)N1C[C@@H](C)C[C@H]1c1ncc(-c2cc3c4c(c2)OCc2cc(-c5cnc([C@@H]6C[C@H](C)CN6C(=O)[C@H](NC(=O)OC)c6ccccc6)[nH]5)cc(c2-4)OC3)[nH]1)c1ccccc1,0.005 nM,0.013 nM,0.058 nM,0.026 nM,0.031 nM,0.006 nM,0.02 nM,,,,
COC(=O)N[C@@H](C(=O)N1[C@@H](C)CC[C@H]1c1ncc(-c2cc3c4c(c2)OCc2cc(-c5cnc([C@@H]6CC[C@H](C)N6C(=O)[C@H](NC(=O)OC)c6ccccc6)[nH]5)cc(c2-4)OC3)[nH]1)c1ccccc1,0.008 nM,0.015 nM,1.84 nM,0.094 nM,0.15 nM,0.004 nM,0.02 nM,,,,
COC(=O)N[C@H](C(=O)N1[C@@H](C)CC[C@H]1c1nc2ccc3cc4c(cc3c2[nH]1)OCc1cc(-c2cnc([C@@H]3C[C@H](C)CN3C(=O)[C@H](NC(=O)OC)c3ccccc3)[nH]2)ccc1-4)C(C)C,0.004 nM,,0.053 nM,,0.008 nM,0.02 nM,0.005 nM,,,,0.015 nM
COC(=O)N[C@H](C(=O)N1CCC[C@H]1c1ncc(-c2ccc3c4ccc(-c5cnc([C@@H]6CCCN6C(=O)[C@@H](NC(=O)OC)C(C)C)[nH]5)cc4c4ccccc4c3c2)[nH]1)C(C)C,,,,,0.092 nM,,0.005 nM,0.02 nM,6.79 nM,,
COC(=O)N[C@H](C(=O)N1CCC[C@H]1c1ncc(-c2cc3ccc4cc(-c5cnc([C@@H]6CCCN6C(=O)[C@@H](NC(=O)OC)C(C)C)[nH]5)cc5c(=O)c(c2)c3c45)[nH]1)C(C)C,,,,,0.22 nM,,0.013 nM,0.073 nM,,,
COC(=O)N[C@H](C(=O)N1CCC[C@H]1c1ncc(-c2cc3c4c(c2)CCc2cc(-c5cnc([C@@H]6CCCN6C(=O)[C@@H](NC(=O)OC)C(C)C)[nH]5)cc(c2-4)CC3)[nH]1)C(C)C,,,,,0.156 nM,,0.021 nM,0.131 nM,13.3 nM,,
COC(=O)N[C@H](C(=O)N1CCC[C@H]1c1ncc(-c2cc3c4c(ccc5cc(-c6cnc([C@@H]7CCCN7C(=O)[C@@H](NC(=O)OC)C(C)C)[nH]6)cc(c54)OC3)c2)[nH]1)C(C)C,,,19.7 nM,10.2 nM,0.063 nM,,0.022 nM,0.014 nM,,,
CC[C@H](C)[C@H](NC(=O)OC)C(=O)N1CCC[C@H]1c1ncc(-c2cc3c4c(c2)OCc2cc(-c5cnc([C@@H]6CCCN6C(=O)[C@@H](NC(=O)OC)[C@@H](C)CC)[nH]5)cc(c2-4)OC3)[nH]1,,,,1.85 nM,0.031 nM,,0.019 nM,0.009 nM,12.1 nM,,
COC(=O)N[C@H](C(=O)N1CCC[C@H]1c1ncc(-c2cc3c4c(c2)OCc2cc(-c5cnc([C@@H]6CCCN6C(=O)[C@@H](NC(=O)OC)C6CCCC6)[nH]5)cc(c2-4)OC3)[nH]1)C1CCCC1,,,,,0.055 nM,,0.022 nM,0.022 nM,> 44 nM,,
COC(=O)N[C@H](C(=O)N1CCC[C@H]1c1ncc(-c2cc3c4c(c2)OCc2cc(-c5cnc([C@@H]6CCCN6C(=O)[C@@H](NC(=O)OC)[C@@H](C)OC)[nH]5)cc(c2-4)OC3)[nH]1)C(C)C,,,,,0.087 nM,,0.079 nM,0.01 nM,3.67 nM,,
COC(=O)N[C@H](C(=O)N1CCC[C@H]1c1ncc(-c2ccc3c4ccc(-c5cnc([C@@H]6CCCN6C(=O)[C@@H](NC(=O)OC)C(C)C)[nH]5)cc4c4nccnc4c3c2)[nH]1)C(C)C,,,,,0.528 nM,,0.018 nM,0.223 nM,,,
COC(=O)N[C@H](C(=O)N1CCC[C@H]1c1ncc(-c2cc3c4c(c2)OCc2cc(-c5cnc([C@@H]6CCCN6C(=O)[C@H](NC(=O)OC)c6ccccc6)[nH]5)cc(c2-4)OC3)[nH]1)C(C)C,,,1.82 nM,0.076 nM,0.05 nM,,0.031 nM,0.004 nM,0.6 nM,,
COC(=O)N[C@H](C(=O)N1CCC[C@H]1c1ncc(-c2ccc3c4ccc(-c5cnc([C@@H]6CCCN6C(=O)[C@@H](NC(=O)OC)C(C)C)[nH]5)cc4c4nc5ccccc5nc4c3c2)[nH]1)C(C)C,,,,,5.99 nM,,0.01 nM,1.47 nM,,,
